Tested on: CA-STAT5aER
Assay: Logic gate system with CA-STAT5aER payload, target reporter gene expression
Type: cell-based
Conditions: host cells co-cultured with CD19+ cells and treated with tamoxifen
Protocol: A logic gate system similar to the system depicted in FIG. 9 and FIG. 10 are examined. Dual promoter nucleic acids are prepared and introduced into host cells. The nucleic acids include an inducible iSynPro promoter and either a constitutively activated signal transducer and activator of transcription 5a (CA-STAT5a) protein (FIG. 9), a fusion protein of CA-STAT5a and of an estrogen receptor (CA-STAT5aER) (FIG. 10), or an alternative fusion protein of CA-STAT5a and of an estrogen receptor (CA-STAT5bER). Host cells are stimulated with Raji cells (CD19+), or PMA/ionomycin and are analyzed by FACS analysis for GFP and EGFRt expression.

Q: For CC/C(=C(\c1ccccc1)c1ccc(OCCN(C)C)cc1)c1ccccc1 [tamoxifen, 2-(4((1Z)-1,2-diphenyl-1-butenyl)phenoxy)-N,N-dimethyl-ethanamine], which “target reporter gene expression” value is on record?
A: express target reporter gene

Reference: patent publication US20230242936A1, “DUAL PROMOTER SYSTEMS” (Seattle Children's Hospital (dba Seattle Children's …, priority 2020, published 2023)
